Measurements from patent US20090312411A1, “PREVENTING OR REDUCING RISK OF MISCARRIAGES” (New York Society for the Raptured and Crippled Maintaining …, priority 2008, published 2009).

Key:
[1] = tested on: sFlt-1; assay: Plasma sFlt-1 (sVEGFR-1) ELISA in CBA/J×DBA/2 mice; assay type: in vivo, mouse; details: day 7 of pregnancy
Protocol: Protocol. To determine the effect of pravastatin treatment on pregnancy loss and oxidative stress, group of mice was treated with pravastatin (Sigma Chemicals, St Louis, Mo.; 5 μg/mouse, IP) from day 4 to 15 of pregnancy. Pravastatin was directly dissolved in sterile PBS. Blood samples were obtained from pregnant females from days 1 to 15 of pregnancy from the submandibular vein. Nitric oxide (NO) was measured by a […] method (R&D Systems). Plasma sVEGFR-1 was measured with a commercial ELISA kit (R&D Systems).

[2] = tested on: monocytes; assay: sFlt-1 release by monocytes in vitro (ELISA); assay type: cell-based, mouse; details: 10 nM C5a for 4 h; pravastatin 5 μg/ml for 3 hours prior to C5a
Protocol: Protocol. Mice with a selective deletion of the TF gene in myeloid cells (TF^floxed/floxed/LysM-Cre mice) (Redecha et al., supra), were used for isolation of monocytes to study sVEGFR-1 production in vitro. Blockade of TF was carried out as in Example 17 by i.p. injections of anti-mTF antibody 1H1.
Protocol. Splenocytes were prepared from non pregnant CBA/J female mice and incubated for 4 h in culture medium supplemented with 10% inactivated fetal bovine serum (FBS). Non adherent cells were removed and adherent cells (>95% peroxidase-positive) were incubated in culture medium with the addition of 10 nM mouse recombinant C5a. A group of adherent monocytes was treated for 3 hours with pravastatin (5 μg/ml) prior to incubation with C5a. After 4 h of incubation with C5a, culture supernatants were collected and analyzed for sVEGFR-1 by ELISA (R&D Systems).

[3] = tested on: TF; assay: TF expression on peripheral blood monocytes, 2-color FACS; assay type: in vivo, mouse; details: CBA/J×DBA/2 mice, FIG. 17G
Protocol: Determining TF Expression. TF expression on peripheral blood monocytes was analyzed by 2-color fluorescence-activated cell sorting (FACS). Heparinized whole blood obtained at day 7 from DBA/2 or BALB/c mated CBA/J females was stained with fluorescein isothiocyanate (FITC)-labeled anti-mouse F4/80 for FL1 (BD Biosciences Pharmingen) to identify monocytes and biotinylated rat anti-mTF antibody 1H1 and streptavidin-PerCP (BD Biosciences Pharmingen) as the FL3 fluorochrome. Red cells were lysed with ACK buffer (Redecha et al., supra). Preparations were then incubated with SA-PerCP and analyzed by FACS using a FACscan (BD Biosciences Pharmingen).

[4] = tested on: Isoprostane 8-iso-prostaglandin F2a (STAT-8); assay: Placental STAT-8 (8-isoprostane) EIA, oxidative stress marker; assay type: in vivo, mouse; details: CBA/J×DBA/2 mice, day 15 placentas, FIG. 16A
Protocol: STAT-8 Measurements. Isoprostane 8-iso-prostaglandin F2a (STAT-8) was measured as a marker for oxidative stress. Placental tissue was harvested at day 15 of pregnancy and homogenized in 9 volumes of 0.1 M Tris pH 7.4 containing 1 mM EDTA and 10 μM indomethacin and stored at −80° C. in the presence of 0.005% BHT before assayed for free 8-isoprostane using a STAT-8-Isoprostane EIA kit (Cayman Chemical Company, Ann Arbor, Mich.).

[5] = tested on: CBA/J×DBA/2 mice; assay: Litter size at birth in CBA/J×DBA/2 matings; assay type: in vivo, mouse; details: CBA/J×DBA/2 mice followed until delivery; FIG. 15C, 17C
Protocol: Measuring Thrombin-Anti-Thrombin Complexes. Thrombin anti thrombin III complex (TAT) was measured using a commercial ELISA kit (Enzygnost TAT; Dade Behring). Some mice from each experimental group were studied until delivery and the litter sizes were recorded at birth.

[6] = tested on: CBA/J×DBA/2 mice; assay: Fetal weight / IUGR in CBA/J×DBA/2 matings; assay type: in vivo, mouse; details: day 15 of pregnancy, FIG. 10, 15B, 17B
Protocol: Protocol. 8-10-wk-old virgin female CBA/J mice were mated with 8-14-wk-old CBA/J, BALB/c, or DBA/2 males. Females were inspected daily for vaginal plugs, and presence of a vaginal plug was designated as day 0 of pregnancy. Pregnant mice were treated with pravastatin (0.2 μg/g bw=5 μg/mouse, i.p 18 hours prior to aPL or NHIgG injections on days 8 and 12). Pravastatin (Sigma Chemical, St Louis, Mo.) was dissolved in EtOH at a concentration of 10 mg/mL and diluted with NaCl 0.9% in a ratio of 1:1000 to yield a final concentration of 10 μg pravastatin per 1 mL carrier. The NaCl 0.9%-based carrier solution for the placebo group was prepared accordingly to include EtOH only (i.e., without pravastatin) at a concentration of 1:1000. Pregnant females were euthanized on day 15 and weights of fetuses were determined.
Animals. Inbred CBA/J (H-2k), DBA/2 (H-2d) and BALB/c (H-2d) mice from The Jackson Laboratory were used. 8-10-wk-old virgin female CBA/J mice were mated with 8-14-wk-old BALB/c, or DBA/2 males. Pregnant females were sacrificed at day 7 and at day 15. The frequency of fetal resorption was calculated on day 15 as previously described (Girardi et al., 2006, J Exp Med 203:2165-2175). Fetal weights were also determined. […]
(§1) Protocol. […] Nitric oxide (NO) was measured by a calorimetric method (R&D Systems). Plasma sVEGFR-1 was measured with a commercial ELISA kit (R&D Systems).

[7] = tested on: CBA/J×DBA/2 mice; assay: Fetal resorption frequency in CBA/J×DBA/2 matings (non aPL-dependent recurrent miscarriage); assay type: in vivo, mouse; details: day 15 of pregnancy, FIG. 7, 15A, 17A
From the text: Protocol. DBA/2-mated female CBA/J mice (CBA/J×DBA/2) are a well-studied model of immunologically mediated pregnancy loss that shares features with human recurrent miscarriage (Clark, D A et al., 1998, J. Immunol. 160:545-549; Blois, M. et al., 2005, J. Immunol. 174:1820-1829). Embryonic lethality in DBA/2-mated female CBA/J mice is believed to represent rejection of the semiallogeneic placenta by maternal-derived activated effectors. 8-10-wk-old virgin female CBA/J mice were mated with 8-14-wk-old CBA/J, BALB/c, or DBA/2 males. Females were inspected daily for vaginal plugs, and presence of a vaginal plug was designated as day 0 of pregnancy. A group of DBA/2- and BALB/c mated CBA/J females were treated with pravastatin (0.2 μg/g bw=5 μg/mouse, i.p) on days 5, 6 and 7 of pregnancy. […] Pregnant females were euthanized on day 15 and fetal resorption frequency was calculated.
Animals. Inbred CBA/J (H-2k), DBA/2 (H-2d) and BALB/c (H-2d) mice from The Jackson Laboratory were used. 8-10-wk-old virgin female CBA/J mice were mated with 8-14-wk-old BALB/c, or DBA/2 males. […] The frequency of fetal resorption was calculated on day 15 as previously described (Girardi et al., 2006, J Exp Med 203:2165-2175). Fetal weights were also determined. […]
as §1

Molecule: CC[C@H](C)C(=O)O[C@H]1C[C@H](O)C=C2C=C[C@H](C)[C@H](CC[C@@H](O)C[C@@H](O)CC(=O)O)[C@H]21 [pravastatin]
- plasma sFlt-1 levels [1]: 18650 ± 5680 pg/mL
- sFlt-1 released by monocytes [2]: 387 ± 78 pg/mL
- % TF positive monocytes [3]: 10±4%

Molecule: hirudin
- placental STAT-8 increase [4]: prevented STAT-8 increase
- litter size at birth [5]: increasing the litter size
- IUGR / growth restriction (fetal weight) [6]: prevented fetal resorptions and growth restriction
- fetal resorption / fetal loss [7]: prevented fetal resorptions
